{"source": "patent US20050282734A1", "about": "(priority 1998, published 2005)", "key": {"[1]": {"conditions": "mice, co-administered P-glycoprotein blocker; cited from earlier work"}, "[2]": {"conditions": "Magri et al. (1988); cited from earlier work"}, "[3]": {"molecular_target": "T1, human serum albumin (HSA) (Homo sapiens, UniProt P02768)", "T1 sequence (P02768 25-609)": "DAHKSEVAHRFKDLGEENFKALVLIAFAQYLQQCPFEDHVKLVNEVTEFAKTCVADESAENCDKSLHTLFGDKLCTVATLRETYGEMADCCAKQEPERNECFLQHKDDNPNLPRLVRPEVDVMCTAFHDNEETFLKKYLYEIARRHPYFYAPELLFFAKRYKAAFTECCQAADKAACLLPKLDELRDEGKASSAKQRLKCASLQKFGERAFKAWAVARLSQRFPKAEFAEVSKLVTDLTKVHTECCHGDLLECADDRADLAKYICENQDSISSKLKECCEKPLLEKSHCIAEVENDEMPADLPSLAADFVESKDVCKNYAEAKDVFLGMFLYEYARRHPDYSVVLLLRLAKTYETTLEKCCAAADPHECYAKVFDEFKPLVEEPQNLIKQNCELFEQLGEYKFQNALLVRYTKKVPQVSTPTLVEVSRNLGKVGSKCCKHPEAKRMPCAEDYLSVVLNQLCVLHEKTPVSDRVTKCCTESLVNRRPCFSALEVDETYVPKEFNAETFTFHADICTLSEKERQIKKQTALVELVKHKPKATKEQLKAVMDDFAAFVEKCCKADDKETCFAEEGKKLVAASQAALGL", "assay": "Recovery of soluble Ptx and binding to HSA by liquid scintillation counting (radioactive Ptx; R, S, F fractions)"}, "[4]": {"molecular_target": "T1, human serum albumin (HSA)", "assay": "Paclitaxel binding to HSA: ultrafiltration (10 kDa), free and total Ptx by ELISA and/or reverse-phase HPLC", "parameters": "purchased Desert Biologicals, Phoenix, Ariz", "conditions": "pH 7.1", "description": "• 1. […] Procedure • 1. […] Saline in water could also be added to the test tubes so that all the test tubes have substantially identical sodium chloride concentrations. • 3. […] The test tubes were covered with a piece of parafilm or in stoppered serum bottles and then incubated at room temperature, with occasional shaking (2 to 3 times). • 6. At 0 hr, 3 hr, and/or 18/24 hr of incubation, the samples were observed qualitatively for precipitate formation. • 7. At the end of the 18-24 hr incubation period, the reaction mixtures were analyzed for turbidity at 600 nm using a Shimadzu 160U UV/visible spectrophotometer (NBI Track #F1174). • 8. […] Analytical methods.\nProcedure • 1. […] The test tubes were covered with a parafilm and then incubated at room temperature, with occasional shaking. Alternatively, the mixtures were prepared in stoppered serum vials. • 6.\nThis unbound fraction can be quantitated by reverse phase HPLC, and/or ELISA."}, "synoviocytes": {"system": "synoviocytes", "conditions": "in vitro, cited from earlier work"}, "[5]": {"assay": "Solubility of paclitaxel in aqueous ethanol saline solution (visual turbidity)", "assay_type": "physicochemical", "description": "Reagents Preparation • 1. […] A 20-ml physiological saline stock solution was also prepared in a small bottle (or flask) and designated the 1× saline stock solution.\n4. The tubes were incubated at room temperature and observed at 0 h, 1 h and 3 h for precipitate formation. The results were recorded as + or − turbidity formation."}, "collagenase": {"system": "collagenase", "conditions": "10^−7 M paclitaxel, chondrocytes stimulated by tumor necrosis factor and interleukin-1; cited from earlier work"}, "HSA": {"molecular_target": "HSA (Homo sapiens, UniProt P02768)", "sequence (P02768 25-609)": "as above", "assay": "Effect of antioxidants on HSA dimerization at acidic pH (SDS-PAGE, reducing and non-reducing)", "conditions": "acidification of commercial HSA to pH 3.0-3.3; compared with ascorbic acid, L-cysteine, sodium thiosulfate", "procedure": "This experiment evaluated a number of conditions to maintain HSA in the formulation, primarily in the monomeric form.\nEvaluation of different antioxidants with undefatted and defatted acidic HSA preparations. • The following reducing reagents were tested: ascorbic acid, L-cysteine, dithioerythritol (DTE) and dithiothreitol (DTT), sodium metabisulfite, sodium thiosulfate, and thioacetic acid. • Different preparations of HSA (10%), including HSA-A, HSA-B, and HSA-D, were treated with antioxidant at different concentrations, ranging from 2 to 40 mM. • The HSA solutions were incubated at 2-8° C. for up to a month, and prevention of dimerization was analyzed by SDS-PAGE under both reducing and non-reducing conditions.\nAnalysis of the effect of antioxidant on prevention of HSA dimerization at low pH. • 5.\n3.3 Add 80 μL of antioxidant solution to the 1.92 mL of HSA-A (20%) in 2×9′ (18) the 15-mL conical tubes as follows:\n• Sample 9 will be the control sample for either HSA-B or HSA-D, untreated. • 3.4 Incubate the samples at 2-8° C. for at least 4 h. • 3.5 In the meantime, • 3.5.1 Prepare material for acidification and defatting of HSA. • 3.5.2 Prepare another 2×9 (18) set of 15-mL conical centrifuge tubes (sterile). […]"}}, "data": [{"smiles": "C/C=C/C[C@@H](C)C(=O)[C@H]1C(=O)N[C@@H](C(C)C)C(=O)N(C)CC(=O)N(C)[C@@H](CC(C)C)C(=O)N[C@@H](C(C)C)C(=O)N(C)[C@@H](CC(C)C)C(=O)N[C@@H](C)C(=O)N[C@H](C)C(=O)N(C)[C@@H](CC(C)C)C(=O)N(C)[C@@H](CC(C)C)C(=O)N(C)[C@@H](C(C)C)C(=O)N1C", "note": "[SDZ PSC 833]", "values": [{"measurement": "increase in oral bioavailability of paclitaxel", "setting": "[1]", "result": 10, "unit": "fold"}]}, {"smiles": "CC(=O)O[C@H]1C(=O)[C@@]2(C)[C@H]([C@H](OC(=O)c3ccccc3)[C@]3(O)C[C@H](OC(=O)[C@H](OC(=O)CCC(=O)O)[C@@H](NC(=O)c4ccccc4)c4ccccc4)C(C)=C1C3(C)C)[C@]1(OC(C)=O)CO[C@@H]1C[C@@H]2O", "note": "[2′-succinyltaxol]", "values": [{"measurement": "in vivo activity compared with paclitaxel", "setting": "[2]", "result": "decreased in vivo activity"}]}, {"smiles": "CC(=O)O[C@H]1C(=O)[C@@]2(C)[C@H]([C@H](OC(=O)c3ccccc3)[C@]3(O)C[C@H](OC(=O)[C@H](O)[C@@H](NC(=O)c4ccccc4)c4ccccc4)C(C)=C1C3(C)C)[C@]1(OC(C)=O)CO[C@@H]1C[C@@H]2O", "note": "[Ptx, paclitaxel]", "values": [{"measurement": "chemical stability of Ptx in alkaline pH formulations", "setting": "[3]", "result": "poor"}, {"measurement": "recovery at 50 μg/mL", "setting": "[4]; defatted human serum albumin (HSA) solution", "result": 73, "unit": "%"}, {"measurement": "recovery at 50 μg/mL", "setting": "[4]; non-defatted human serum albumin (HSA) solution", "result": 89, "unit": "%"}, {"measurement": "concentration cytotoxic to the synoviocytes", "setting": "synoviocytes", "result": "10^−6 to 10^−5 M"}, {"measurement": "concentration inhibiting proliferation of synoviocytes and inducing apoptosis", "setting": "synoviocytes; concentrations as low as", "result": "10^−7 M"}, {"measurement": "time until paclitaxel solutions turned cloudy", "setting": "[5]; 500 μg/ml paclitaxel, 20% ethanol or less, room temperature", "result": "≤ 5", "unit": "min"}, {"measurement": "paclitaxel concentration at which solutions remained clear for at least 3 hours", "setting": "[5]; aqueous ethanol saline solutions, room temperature", "result": "≤ 50", "unit": "µg/mL"}, {"measurement": "paclitaxel concentration at which clear solutions were obtained", "setting": "[5]; aqueous ethanol solutions (5% to 25%), after a 1-h incubation at room temperature", "result": "less than 100 μg/ml"}, {"measurement": "solubility of paclitaxel at 500 μg/ml", "setting": "[5]; saline solution containing up to 25% ethanol, after 1 hr", "result": "not soluble"}, {"measurement": "reduction of collagenase expression", "setting": "collagenase", "result": "over 50%"}]}, {"smiles": "O[C@H](CS)[C@@H](O)CS", "note": "[DTE, dithioerythritol]", "values": [{"measurement": "effectiveness in minimizing the HSA dimerization reaction", "setting": "HSA", "result": "most effective"}]}, {"smiles": "CC(=O)O[C@H]1C(=O)[C@@]2(C)[C@H]([C@H](OC(=O)c3ccccc3)[C@]3(O)C[C@H](OC(=O)[C@H](O[Si](C)(C)C(C)(C)C)[C@@H](NC(=O)c4ccccc4)c4ccccc4)C(C)=C1C3(C)C)[C@]1(OC(C)=O)CO[C@@H]1C[C@@H]2O", "note": "[2′-(t-butyldimethylsilyl)taxol]", "values": [{"measurement": "in vivo activity compared with paclitaxel", "setting": "[2]", "result": "essentially inactive"}]}]}
